We go through four molecules from patent US7910620B2, “Uses of neuraminidase inhibitors in infectious diseases” (priority 2005, dated 2011).

Assay [1] relates to Infectious Canine Tracheobronchitis (ICT) or Kennel Cough. Format: in vivo, dog. The settings on record: for Clinical course (Days to Recover): racing greyhounds Miami, oral antibiotic plus cough suppressant, no Tamiflu, 5 days.
For assay [2], the system named is canine parvoviral enteritis. Put plainly: Canine parvoviral enteritis clinical cases: treatment and prevention with oral Tamiflu. The settings on record: for Outcome of exposed dogs (Days to Recover): exposed - preventive, Tamiflu 1 mg/lb once a day (AM) for 5 days. Format: in vivo, dog. The method, then:
Table 3 represents 28 Chihuahua dogs and puppies that experienced an outbreak of canine parvoviral enteritis within their kennel. The initial treatment lasted one week and was consistent with traditional therapy. (IV fluids, antibiotics and antiemetics). During the first week, 9 puppies died and a second veterinarian was consulted.
The second veterinarian removed all IV treatment and started oral Tamiflu and AmoxiDrops on 11 puppies. This treatment was administered by the kennel staff with the veterinarian consulting by phone.
The exposed dogs received 1 mg/lb of Tamiflu once a day for 5 days.
Table 4 represents of 25 cocker spaniel dogs and puppies that experienced an outbreak of canine parvoviral enteritis within their kennel. The initial treatment lasted one week and was consistent with traditional therapy consisting of IV fluids and antibiotics, antiemetics and steroids. During this period of time, 9 puppies died, and a second veterinarian was consulted.
The second veterinarian removed all IV treatment and oral Tamiflu and sulfadimethoxine/ormetoprim (antibiotic) were the only drugs administered to 11 of the puppies. The 12th puppy was taken to the veterinarian's clinic and received IV therapy. Those puppies remaining at the kennel were treated by the kennel staff.
Table 5 represents 48 individual cases of Canine Parvoviral Enteritis treated with 1 mg/lb Tamiflu AM/PM for 10 treatments. Cases posted VIN's Infectious Dz Board by 20 veterinarians practicing in 15 states.

The subject of assay [3] is Feline Parvoviral Enteritis. Put plainly: Feline parvoviral enteritis cases: treatment and prevention with Tamiflu. Format: in vivo, cat. The protocol: Table 6 represents 5 cases of Feline Parvoviral Enteritis with Tamiflu at 1 mg/lb AM/PM for 10 treatments.
The subject of assay [4] is Raccoon Parvoenteritis/Distemper. The experiment in a line: Raccoon parvoenteritis/distemper treated with Tamiflu. The settings on record: raccoons, Tamiflu 1 mg/lb every 12 hrs for 10 treatments, no IV drugs. Format: in vivo. The method, then: Table 7 represents 5 raccoons treated with Tamiflu at 1 mg/lb given every 12 hrs for 10 treatments. Treatment administered by civilian rehabbers at their homes. Granules mixed with pancake syrup.
Raccoons represent the 5th species (cow, dog, cat, mice) in which a neuraminidase inhibitor has been successful in treating or preventing a disease associated with neuramimidase dependent bacteria. Before using Tamiflu, the hemorrhagic gastroenteritis (Parvo) in raccoon was 100% fatal. […] Treatment was administered by untrained lay personnel at the rehab centers.

Assay [5] concerns E. coli. Put plainly: Clinical Trial: Tamiflu and E. coli (case Pinga, Table 16). Format: in vivo, feline. The note with it: for Clinical response: case Pinga, acute vomiting and hematuria, endotoxic condition. The protocol: In Table 16, E. coli, a neuraminidase dependent bacteria, was cultured from Pinga's urine following an acute onset of vomiting and hematuria. […] 24, 2005 when […] presented in an endotoxic condition.

“And” between values parts separate entries of the source, which are not always exact repeats. Identical values can stand only once. “Also recorded” adds a separate entry of the source.

In the case of `CC1=C(C(=O)O)N2C(=O)[C@@H](NC(=O)[C@H](N)c3ccccc3)[C@H]2SC1` [Cephalexin], the “Clinical course (Days to Recover)” value in assay [1] was “No Change”.

Regarding `C[C@H]1c2cccc(O)c2C(O)=C2C(=O)[C@]3(O)C(O)=C(C(N)=O)C(=O)[C@@H](N(C)C)[C@@H]3[C@@H](O)[C@@H]21` [Doxy], the “Clinical course (Days to Recover)” value in assay [1] was “No Change”.

On to `CCOC(=O)C1=C[C@@H](OC(CC)CC)[C@H](NC(C)=O)[C@@H](N)C1` [Tamiflu, oseltamivir], for which the “Days to Recover” value was 5 days and 3 days in assay [2] (Chihuahua kennel puppies, Tamiflu 1 mg/lb AM/PM oral with AmoxiDrops, no IV drugs); 3 days and 5 days and 4 days in assay [2] (Sandcastle Kennels cocker puppies, Tamiflu 1 mg/lb AM/PM oral with sulfadimethoxine/ormetoprim); 4 days and 2 days and 3 days in assay [3] (cats, Tamiflu 1 mg/lb AM/PM for 10 treatments, with IV drugs or SQ fluids); 3 days in assay [4]; 3 to 5 days in assay [1] (kennel cough, Tamiflu 1 mg/lb AM/PM, with or without oral antibiotic, no cough suppressant). Besides, in assay [2] (Chihuahua kennel, 11 puppies, oral Tamiflu and AmoxiDrops), the Survival of puppies result was “All puppies survived”. For the same molecule, the results for the “Outcome of exposed dogs (Days to Recover)” value in assay [2] (Chihuahua kennel) and in assay [2] (Sandcastle Kennels) were “remained healthy” and “did not develop canine parvoviral enteritis; also recorded: Healthy”, respectively. The “Outcome of exposed dog (Days to Recover)” value in assay [2] (Table 5, exposed puppy, weak parvo test, Tamiflu 1 mg/lb AM/PM) is recorded as “Normal”. Also, in assay [3] (exposed kitten, Tamiflu 1 mg/lb once a day (AM) for 5 days), the “Outcome of exposed kitten (Days to Recover)” value was “remained normal”. Besides, the Clinical response result in assay [5] (E. coli cultured from urine) was “dramatic reversal”. The Observations entry in assay [5] (cat Pinga, E. coli cultured from urine, at 2nd treatment, Nov. 24, 2004 5:35 PM, Tamiflu 12 mg PO (1 mg/lb), with Zeniquin) was “Pinga is more alert and has not vomited”; in assay [5] (cat Pinga, at 4th treatment, Nov. 25, 2004 5:30 PM, Tamiflu 12 mg PO) it was “Urinated, was normal yellow color . . . has”; in assay [5] (cat Pinga, at 5th treatment, Nov. 26, 2004 10:30 AM, Tamiflu 12 mg PO, with Zeniquin) it was “exam is normal”; in assay [5] (cat Pinga, at 6th treatment, Nov. 26, 2004 5 PM, Tamiflu 12 mg PO) it was “Urinated normal urine . . . passed 3 small”; in assay [5] (cat Pinga, at 7th treatment, Nov. 27, 2004 10:30 AM, Tamiflu 12 mg PO, with Zeniquin), “more alert . . . began to eat Wellness dry”; in assay [5] (cat Pinga, at 9th treatment, Nov. 28, 2004 10:30 AM, Tamiflu 12 mg PO, with Zeniquin), “almost “normal” . . . maybe weak in rear”. Besides, in assay [5] (cat Pinga, at 10th (last) treatment, 5:30 PM, Tamiflu 12 mg PO), the Observations entry was “Pinga appears to be normal . . . this is his”. For the same molecule, the Temp in assay [5] (cat Pinga, at 3rd treatment, Nov. 25, 2004) turned out to be 99.5 F; in assay [5] (cat Pinga, at 4th treatment, Nov. 25, 2004), 98.9 F; in assay [5] (cat Pinga, at 5th treatment, Nov. 26, 2004), 98.8 F; in assay [5] (cat Pinga, at 6th treatment, Nov. 26, 2004), 100.6 F; in assay [5] (cat Pinga, at 7th treatment, Nov. 27, 2004) it was 98.8 F; in assay [5] (cat Pinga, at 9th treatment, Nov. 28, 2004), 100.1 F. Further, the “Illness in holding kennels under herd health program” value in assay [1] (sick dogs 1 mg/lb AM/PM 5 days, others and new puppies 1 mg/lb once a day for 5 days) is on record as “below 5%”.

As for `CN1CCN(c2c(F)cc3c(=O)c(C(=O)O)cn4c3c2OCN4C)CC1` [Zeniquin], in assay [5] (E. coli cultured from urine), the Clinical response result is recorded as “failed to respond”. Moreover, in assay [5] (cat Pinga, Zeniquin 12.5 mg/day PO from Nov. 22 to Nov. 24, 2004, before Tamiflu), the “Clinical course under antibiotic therapy (Medical History)” value was “had gotten progressively worse over the course of antibiotic therapy, and now appeared to be approaching”.
